# Experimental data reported in ChEMBL document CHEMBL1146775 (2004).
# The source made the active and inactive calls.
# Key:
# [1] = Maximal rate of vascular endothelium-dependent relaxation at the concentration of 10E-5 M/L; 30-50%; conditions: Oryctolagus cuniculus
# [2] = target: Muscarinic acetylcholine receptor M3 (Cavia porcellus) (UniProt Q8VH26); conditions: Ileum
# [3] = Maximal rate of vascular endothelium-dependent relaxation at the concentration of 10E-5 M/L; […]; conditions: Oryctolagus cuniculus
# [4] = Maximal rate of vascular endothelium-dependent relaxation at the concentration of 10E-5 M/L; 0-10%; conditions: Oryctolagus cuniculus
# [5] = Maximal rate of vascular endothelium-dependent relaxation at the concentration of 10E-5 M/L; - = no activity; conditions: Oryctolagus cuniculus
# [6] = Maximal rate of vascular endothelium-dependent relaxation at the concentration of 10E-5 M/L; conditions: Oryctolagus cuniculus
# [7] = organism: Rattus norvegicus; test: Rate of relaxation of endothelium intact rat aorta; format: functional
# [8] = organism: Rattus norvegicus; test: Rate of relaxation of endothelium denuded rat aorta; format: functional
# [9] = organism: Rattus norvegicus; test: Rate of relaxation of Indomethacin treated rat aorta; format: functional
# [10] = organism: Rattus norvegicus; test: Rate of relaxation of L-NAME treated rat aorta; format: functional
# [11] = organism: Rattus norvegicus; test: Rate of relaxation of Atropine treated rat aorta; format: functional
# [12] = organism: Oryctolagus cuniculus; test: Vascular relaxation of rabbit carotid model (high lipid diet) at 0.1 M/L concentration; format: functional
# [13] = tested on: Oryctolagus cuniculus; test: Vascular relaxation of rabbit carotid model at 0.1 M/L concentration with 5 mg/kg PPVP; format: functional
# Chain of Muscarinic acetylcholine receptor M3 (Cavia porcellus) (Q8VH26 1-587): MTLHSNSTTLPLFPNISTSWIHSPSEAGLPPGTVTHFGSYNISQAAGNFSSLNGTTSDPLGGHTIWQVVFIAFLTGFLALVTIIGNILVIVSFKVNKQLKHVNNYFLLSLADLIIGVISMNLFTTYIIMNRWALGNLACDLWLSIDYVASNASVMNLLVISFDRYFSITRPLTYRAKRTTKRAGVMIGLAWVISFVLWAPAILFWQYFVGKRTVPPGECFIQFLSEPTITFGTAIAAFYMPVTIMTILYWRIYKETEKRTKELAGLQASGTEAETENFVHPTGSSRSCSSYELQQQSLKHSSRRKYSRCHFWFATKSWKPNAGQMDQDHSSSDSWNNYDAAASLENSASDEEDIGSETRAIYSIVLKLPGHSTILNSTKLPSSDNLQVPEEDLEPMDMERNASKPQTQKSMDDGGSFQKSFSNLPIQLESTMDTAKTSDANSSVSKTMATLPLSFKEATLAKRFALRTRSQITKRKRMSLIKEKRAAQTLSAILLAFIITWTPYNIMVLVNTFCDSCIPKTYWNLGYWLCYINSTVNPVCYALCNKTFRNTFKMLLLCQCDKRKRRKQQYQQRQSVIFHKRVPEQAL
compound,measurement,setting,value
COC(=O)CCCCN1CCOCC1,Relaxation,[1],50%
same,Contraction,[2],inactive
CN1CCN(C(C#N)c2ccc3c(c2)OCO3)CC1 (stereo not drawn),Relaxation,[3],30%
same,Contraction,[2],inactive
CN1CCN(C(C#N)c2ccccc2Cl)CC1 (stereo not drawn),Relaxation,[4],10%
same,Contraction,[2],inactive
CCOP(=O)(OCC)C(c1ccc(O)c(OC)c1)N1CCOCC1 (stereo not drawn),Relaxation,[3],30%
same,Contraction,[2],inactive
COC(=O)CCN1CCN(C)CC1,Relaxation,[5],inactive
same,Contraction,[2],inactive
CCOP(=O)(OCC)C(c1ccc(O)cc1)N1CCOCC1 (stereo not drawn),Relaxation,[4],10%
same,Contraction,[2],inactive
N#CC(c1c(F)cccc1Cl)N1CCOCC1 (stereo not drawn),Relaxation,[4],10%
same,Contraction,[2],inactive
COc1cc(C(C#N)N2CCN(C)CC2)cc(OC)c1OC (stereo not drawn),Contraction,[2],inactive
same,Relaxation,[6],> 50%
N#CC(NCc1ccccc1)c1ccco1 (stereo not drawn),Relaxation,[4],10%
same,Contraction,[2],inactive
COC(=O)C1CC2C(=O)C=CC1N2Cc1ccccc1 (stereo not drawn),Relaxation,[4],10%
same,Contraction,[2],inactive
CN1CCN(C(C#N)c2ccc(F)cc2)CC1 (stereo not drawn),Relaxation,[1],50%
same,Contraction,[2],inactive
N#CC(c1cccs1)N1CCOCC1 (stereo not drawn),Relaxation,[4],10%
same,Contraction,[2],inactive
N#CC(c1ccc(Cl)c(F)c1)N1CCOCC1 (stereo not drawn),Relaxation,[5],inactive
same,Contraction,[2],inactive
Cc1ccccc1C(C#N)N1CCN(C)CC1 (stereo not drawn),Relaxation,[4],10%
same,Contraction,[2],inactive
COc1cc(C(C#N)N2CCOCC2)cc(OC)c1OC (stereo not drawn),Relaxation,[1],50%
same,Contraction,[2],inactive
CN1CCN(Cc2nn[nH]n2)CC1,Relaxation,[3],30%
same,Contraction,[2],inactive
N#CC1CN(Cc2ccccc2)CCN1Cc1ccccc1 (stereo not drawn),Relaxation,[3],30%
same,Contraction,[2],inactive
N#CC(c1ccco1)N1CCOCC1 (stereo not drawn),Relaxation,[4],10%
same,Contraction,[2],inactive
O=C(CN1CCOCC1)Nc1c(Cl)cccc1Cl,Relaxation,[3],30%
same,Contraction,[2],inactive
N#CC(c1cccc(F)c1)N1CCOCC1 (stereo not drawn),Relaxation,[1],50%
same,Contraction,[2],inactive
CN1CCN(C(C#N)c2cccc(F)c2)CC1 (stereo not drawn),Relaxation,[1],50%
same,Contraction,[2],inactive
Cc1ccccc1C(C#N)N1CCOCC1 (stereo not drawn),Relaxation,[3],30%
same,Contraction,[2],inactive
CCOP(=O)(OCC)C(c1cc([N+](=O)[O-])ccc1O)N1CCN(C)CC1 (stereo not drawn),Relaxation,[3],30%
same,Contraction,[2],inactive
COC(=O)C1CN(Cc2ccccc2)CCN1Cc1ccccc1 (stereo not drawn),Relaxation,[3],30%
same,Contraction,[2],inactive
CCOP(=O)(OCC)C(c1cc(OC)c(O)c(OC)c1)N1CCN(c2ccccn2)CC1.Cl (stereo not drawn),Relaxation,[7],84%
same,Relaxation,[8],5.7%
same,Relaxation,[9],14.2%
same,Relaxation,[10],26.2%
same,Relaxation,[11],82.6%
same,Contraction,[2],inactive
same,Relaxation,[6],> 50%
N#CC(c1ccccc1Cl)N1CCOCC1 (stereo not drawn),Relaxation,[1],50%
same,Contraction,[2],inactive
COC(=O)[C@@H]1C[C@@H](O)CN1,Relaxation,[3],30%
same,Contraction,[2],inactive
CCN(CC)CCC(=O)OC,Relaxation,[5],inactive
same,Contraction,[2],inactive
CN1CCN(CC#N)CC1,Relaxation,[1],50%
same,Contraction,[2],inactive
CN1CCN(C(C#N)c2c(F)cccc2Cl)CC1 (stereo not drawn),Relaxation,[3],30%
same,Contraction,[2],inactive
COc1cc(C(C#N)N2CCN(C)CC2)c([N+](=O)[O-])cc1OC (stereo not drawn),Contraction,[2],inactive
same,Relaxation,[6],> 50%
CCOP(=O)(OCC)C(c1ccc(O)c(OC)c1[N+](=O)[O-])N1CCN(C)CC1 (stereo not drawn),Relaxation,[4],10%
same,Contraction,[2],inactive
CNC(=O)CCN1CCCCC1,Relaxation,[5],inactive
same,Contraction,[2],inactive
C#CCN1CCOCC1,Relaxation,[5],inactive
same,Contraction,[2],inactive
CCOC(=O)CN1CCN(C)CC1,Relaxation,[3],30%
same,Contraction,[2],inactive
CCOP(=O)(OCC)C(c1ccc(O)cc1)N1CCN(c2ccccn2)CC1 (stereo not drawn),Relaxation,[4],10%
same,Contraction,[2],inactive
COC(=O)CCCN1CCOCC1,Relaxation,[5],inactive
same,Contraction,[2],inactive
CC(=O)OCC[N+](C)(C)C [ACETYLCHOLINE],Relaxation,[12],32.2%
same,Relaxation,[13],65.9%
O=C1CN2CCC1CC2,Relaxation,[5],inactive
same,Contraction,[2],inactive
Cc1ccc(C(C#N)N2CCN(C)CC2)cc1 (stereo not drawn),Relaxation,[3],30%
same,Contraction,[2],inactive
N#CCCN1CCOCC1,Relaxation,[5],inactive
same,Contraction,[2],inactive
N#CCN1CCOCC1,Relaxation,[1],50%
same,Contraction,[2],inactive
O/N=C1\CN2CCC1CC2,Relaxation,[5],inactive
same,Contraction,[2],inactive
C#CCN1CCN(C)CC1,Relaxation,[3],30%
same,Contraction,[2],inactive
CN1CCN(C(C#N)c2cc3c(cc2Cl)OCO3)CC1 (stereo not drawn),Relaxation,[4],10%
same,Contraction,[2],inactive
CCOP(=O)(OCC)C(c1ccc(O)c(OC)c1)N1CCN(C)CC1 (stereo not drawn),Relaxation,[3],30%
same,Contraction,[2],inactive
N#CC(c1ccccc1F)N1CCOCC1 (stereo not drawn),Relaxation,[3],30%
same,Contraction,[2],inactive
N#CC1(O)CN2CCC1CC2 (stereo not drawn),Relaxation,[5],inactive
same,Contraction,[2],inactive
CN1CCN(C(C#N)c2cccs2)CC1 (stereo not drawn),Relaxation,[3],30%
same,Contraction,[2],inactive
CCOP(=O)(OCC)C(c1cc(OC)c(O)c(OC)c1)N1CCN(C)CC1 (stereo not drawn),Relaxation,[3],30%
same,Contraction,[2],inactive
CN1C2CC=C(C(N)=O)C1CC2 (stereo not drawn),Relaxation,[3],30%
same,Contraction,[2],inactive
N#CCCN1CCCCC1,Relaxation,[5],inactive
same,Contraction,[2],inactive
CCOP(=O)(OCC)C(c1ccc(O)c(OC)c1)N1CCN(c2ccccn2)CC1.Cl (stereo not drawn),Relaxation,[7],81.4%
same,Relaxation,[8],13.9%
same,Relaxation,[9],23.8%
same,Relaxation,[10],28.8%
same,Relaxation,[11],85.7%
same,Contraction,[2],inactive
same,Relaxation,[6],> 50%
N#CCN1CCCCC1,Contraction,[2],inactive
NC(=O)CCN1CCOCC1,Relaxation,[5],inactive
same,Contraction,[2],inactive
N#CC(c1ccc(F)cc1)N1CCOCC1 (stereo not drawn),Relaxation,[3],30%
same,Contraction,[2],inactive
CN1CCN(CCC(N)=O)CC1,Relaxation,[5],inactive
same,Contraction,[2],inactive
CCOP(=O)(OCC)C(c1cc(Cl)cc(Cl)c1O)N1CCN(c2ccccn2)CC1 (stereo not drawn),Contraction,[2],inactive
same,Relaxation,[6],> 50%
CCOP(=O)(OCC)C(c1ccc(O)c(OC)c1[N+](=O)[O-])N1CCOCC1 (stereo not drawn),Relaxation,[4],10%
same,Contraction,[2],inactive
CN1C2CC=C(C#N)C1CC2 (stereo not drawn),Relaxation,[4],10%
same,Contraction,[2],inactive
N#CC(c1ccc2c(c1)OCO2)N1CCOCC1 (stereo not drawn),Relaxation,[3],30%
same,Contraction,[2],inactive
COC(=O)CCN1CCCCC1,Relaxation,[4],10%
same,Contraction,[2],inactive
Cc1ccc(C(C#N)N2CCOCC2)cc1 (stereo not drawn),Relaxation,[3],30%
same,Contraction,[2],inactive
O=C(CCN1CCOCC1)c1ccc([N+](=O)[O-])cc1,Relaxation,[3],30%
same,Contraction,[2],inactive
Cc1cccc(C(C#N)N2CCOCC2)c1 (stereo not drawn),Relaxation,[3],30%
same,Contraction,[2],inactive
CN1CCN(C(C#N)c2ccccc2F)CC1 (stereo not drawn),Relaxation,[1],50%
same,Contraction,[2],inactive
C=CCN1CCN(C)CC1,Relaxation,[3],30%
N#CC(NCc1ccccc1)c1ccc2c(c1)OCO2 (stereo not drawn),Relaxation,[4],10%
same,Contraction,[2],inactive
CCOP(=O)(OCC)C(c1cc(OC)c(O)c(OC)c1)N1CCOCC1 (stereo not drawn),Relaxation,[1],50%
same,Contraction,[2],inactive
CCOP(=O)(OCC)C(c1cc([N+](=O)[O-])ccc1O)N1CCOCC1 (stereo not drawn),Relaxation,[3],30%
same,Contraction,[2],inactive
N#CC1CC2C(=O)C=CC1N2Cc1ccccc1 (stereo not drawn),Relaxation,[5],inactive
same,Contraction,[2],inactive
CN1CCN(CC(=O)Nc2c(Cl)cccc2Cl)CC1,Relaxation,[4],10%
same,Contraction,[2],inactive
CN1CCN(C(C#N)c2ccco2)CC1 (stereo not drawn),Relaxation,[4],10%
same,Contraction,[2],inactive
CCOP(=O)(OCC)C(c1ccc(O)cc1)N1CCN(C)CC1 (stereo not drawn),Relaxation,[3],30%
same,Contraction,[2],inactive
CCOC(=O)CN1CCOCC1,Relaxation,[4],10%
same,Contraction,[2],inactive
CCOP(=O)(OCC)C(c1cc(Br)cc(Br)c1O)N1CCN(c2ccccn2)CC1 (stereo not drawn),Relaxation,[3],30%
same,Contraction,[2],inactive
CNC(=O)CCN1CCOCC1,Relaxation,[5],inactive
same,Contraction,[2],inactive
CN1CCN(CCC#N)CC1,Relaxation,[5],inactive
same,Contraction,[2],inactive
CN1CCN(C(C#N)c2ccc(Cl)c(F)c2)CC1 (stereo not drawn),Relaxation,[5],inactive
same,Contraction,[2],inactive
Cc1cccc(C(C#N)N2CCN(C)CC2)c1 (stereo not drawn),Relaxation,[4],10%
same,Contraction,[2],inactive
